The values that follow come from PMC12797250, “Structure–activity relationships can be directly extracted from high-throughput crystallographic evaluation of fragment elaborations in crude reaction mixtures” (Chemical Science, 2025).

The Kd is the constant that tells how readily two partners part at equilibrium. Low values mean a tighter complex, high ones a looser complex.

Assay [1] has as its target T1, PHIP(2) (Homo sapiens, UniProt Q8WWQ0).
T1 construct: second bromodomain
Briefly: grating-coupled interferometry (waveRAPID), immobilised PHIP([…]). The assay is classed as binding.

Assay [2] addresses T1, PHIP(2). Briefly: X-ray crystallography, crystal soak. The assay is classed as binding. Conditions: acetylated lysine site; soak 8 mM, 24 h, 4 °C, 20% ethylene glycol, pH about 5.6; flipped and translated pose.

Molecule `CNC(=O)N1CCN(C(=O)c2ccc(COc3ccccc3)o2)CC1` [LAT33] had a Kd on PHIP(2) [1] of 18 µM.
Turning to `CC1=Nc2ccc(C(=O)N3CCN(C(=O)NC(C)(C)C)CC3)cc2C1(C)C` [LAT39], the “X-ray crystallography, crystal soak” value at PHIP(2) [2] is “long extensions towards the solvent (7FV8, LAT25 and 7FUZ, LAT39)”.
